# Calls of active or inactive are those of the source. The rule behind the calls is not given here.
# Test system: CCRIS mutagenicity, Ames/micronucleus/aberration tests
# Assay: CCRIS mutagenicity studies
# [1] = Test System: AMES SALMONELLA TYPHIMURIUM, Strain/Indicator: TA97, Metabolic Activation: NONE, Method: PREINCUBATION
# [2] = Test System: AMES SALMONELLA TYPHIMURIUM, Strain/Indicator: TA98, Metabolic Activation: HAMSTER, LIVER, S-9, AROCLOR 1254 (10%), Method: PREINCUBATION
# [3] = Test System: AMES SALMONELLA TYPHIMURIUM, Strain/Indicator: TA98, Metabolic Activation: HAMSTER, LIVER, S-9, AROCLOR 1254 (30%), Method: PREINCUBATION
# [4] = Test System: AMES SALMONELLA TYPHIMURIUM, Strain/Indicator: TA98, Metabolic Activation: NONE, Method: PREINCUBATION
# [5] = Test System: AMES SALMONELLA TYPHIMURIUM, Strain/Indicator: TA98, Metabolic Activation: RAT, LIVER, S-9, AROCLOR 1254 (10%), Method: PREINCUBATION
# [6] = Test System: AMES SALMONELLA TYPHIMURIUM, Strain/Indicator: TA98, Metabolic Activation: RAT, LIVER, S-9, AROCLOR 1254 (30%), Method: PREINCUBATION
# [7] = Test System: AMES SALMONELLA TYPHIMURIUM, Strain/Indicator: TA100, Metabolic Activation: HAMSTER, LIVER, S-9, AROCLOR 1254 (10%), Method: PREINCUBATION
# [8] = Test System: AMES SALMONELLA TYPHIMURIUM, Strain/Indicator: TA100, Metabolic Activation: HAMSTER, LIVER, S-9, AROCLOR 1254 (30%), Method: PREINCUBATION
# [9] = Test System: AMES SALMONELLA TYPHIMURIUM, Strain/Indicator: TA100, Metabolic Activation: NONE, Method: PREINCUBATION
# [10] = Test System: AMES SALMONELLA TYPHIMURIUM, Strain/Indicator: TA100, Metabolic Activation: RAT, LIVER, S-9, AROCLOR 1254 (10%), Method: PREINCUBATION
# [11] = Test System: AMES SALMONELLA TYPHIMURIUM, Strain/Indicator: TA100, Metabolic Activation: RAT, LIVER, S-9, AROCLOR 1254 (30%), Method: PREINCUBATION
# [12] = Test System: AMES SALMONELLA TYPHIMURIUM, Strain/Indicator: TA1535, Metabolic Activation: NONE, Method: PREINCUBATION
# [13] = Test System: AMES SALMONELLA TYPHIMURIUM, Strain/Indicator: TA1537, Metabolic Activation: NONE, Method: PREINCUBATION
smiles,measurement,setting,value
CCCN(CCC)C(=O)SCC,mutagenic call,"End Point: In vitro chromosomal aberrations, Test System: Chinese hamster ovary (CHO) cells, Metabolic Activation: None",inactive; negative
same,mutagenic call,"End Point: In vitro chromosomal aberrations, Test System: Chinese hamster ovary (CHO) cells, Metabolic Activation: Rat, Liver, S-9",inactive; negative
same,mutagenic call,"End Point: In vitro chromosomal aberrations, Test System: Mouse lymphoma cells, Strain/Indicator: L5178Y (tk+/tk-), Metabolic Activation: None",active; positive (structure and ploidy)
same,mutagenic call,"End Point: In vitro chromosomal aberrations, Test System: Mouse lymphoma cells, Strain/Indicator: L5178Y (tk+/tk-), Metabolic Activation: S-9",inactive; negative
same,mutagenic call,"Test System: AMES SALMONELLA TYPHIMURIUM, Strain/Indicator: TA97, Metabolic Activation: HAMSTER, LIVER, S-9, AROCLOR 1254 (10 OR 30%), Method: PREINCUBATION",inactive; negative
same,mutagenic call,[1],inactive; negative
same,mutagenic call,"Test System: AMES SALMONELLA TYPHIMURIUM, Strain/Indicator: TA97, Metabolic Activation: RAT, LIVER, S-9, AROCLOR 1254 (10 OR 30%), Method: PREINCUBATION",inactive; negative
same,mutagenic call,[2],inactive; negative
same,mutagenic call,[3],inactive; negative
same,mutagenic call,[4],inactive; negative
same,mutagenic call,[5],inactive; negative
same,mutagenic call,[6],inactive; negative
same,mutagenic call,[7],inactive; negative
same,mutagenic call,[8],inactive; negative
same,mutagenic call,[9],inactive; negative
same,mutagenic call,[10],inactive; negative
same,mutagenic call,[11],inactive; negative
same,mutagenic call,"Test System: AMES SALMONELLA TYPHIMURIUM, Strain/Indicator: TA1535, Metabolic Activation: HAMSTER, LIVER, S-9, AROCLOR 1254 (10 OR 30%), Method: PREINCUBATION",inactive; negative
same,mutagenic call,[12],inactive; negative
same,mutagenic call,"Test System: AMES SALMONELLA TYPHIMURIUM, Strain/Indicator: TA1535, Metabolic Activation: RAT, LIVER, S-9, AROCLOR 1254 (10 OR 30%), Method: PREINCUBATION",inactive; negative
same,mutagenic call,"Test System: AMES SALMONELLA TYPHIMURIUM, Strain/Indicator: TA1537, Metabolic Activation: HAMSTER, LIVER, S-9, AROCLOR 1254 (10 OR 30%), Method: PREINCUBATION",inactive; negative
same,mutagenic call,[13],inactive; negative
same,mutagenic call,"Test System: AMES SALMONELLA TYPHIMURIUM, Strain/Indicator: TA1537, Metabolic Activation: RAT, LIVER, S-9, AROCLOR 1254 (10 OR 30%), Method: PREINCUBATION",inactive; negative
same,mutagenic call,"Test System: Ames Salmonella typhimurium, Strain/Indicator: TA98, Metabolic Activation: None, Method: Plate incorporation amd preincubation (2 trials)",inactive; negative. (cytotoxicity at doses of 1000 ug/plate and above.)
same,mutagenic call,"Test System: Ames Salmonella typhimurium, Strain/Indicator: TA98, Metabolic Activation: Rat, Liver, S-9, Aroclor, Method: Plate incorporation",inactive; negative. (cytotoxicity at doses of 1000 ug/plate and above.)
same,mutagenic call,"Test System: Ames Salmonella typhimurium, Strain/Indicator: TA100, Metabolic Activation: None, Method: Plate incorporation amd preincubation (2 trials)",inactive; negative. (cytotoxicity at doses of 1000 ug/plate and above.)
same,mutagenic call,"Test System: Ames Salmonella typhimurium, Strain/Indicator: TA100, Metabolic Activation: Rat, Liver, S-9, Aroclor, Method: Plate incorporation",inactive; negative. (cytotoxicity at doses of 1000 ug/plate and above.)
same,mutagenic call,"Test System: Ames Salmonella typhimurium, Strain/Indicator: TA1535, Metabolic Activation: None, Method: Plate incorporation amd preincubation (2 trials)",inactive; negative. (cytotoxicity at doses of 1000 ug/plate and above.)
same,mutagenic call,"Test System: Ames Salmonella typhimurium, Strain/Indicator: TA1535, Metabolic Activation: Rat, Liver, S-9, Aroclor, Method: Plate incorporation",inactive; negative. (cytotoxicity at doses of 1000 ug/plate and above.)
same,mutagenic call,"Test System: Ames Salmonella typhimurium, Strain/Indicator: TA1537, Metabolic Activation: None, Method: Plate incorporation amd preincubation (2 trials)",inactive; negative. (cytotoxicity at doses of 1000 ug/plate and above.)
same,mutagenic call,"Test System: Ames Salmonella typhimurium, Strain/Indicator: TA1537, Metabolic Activation: Rat, Liver, S-9, Aroclor, Method: Plate incorporation",inactive; negative. (cytotoxicity at doses of 1000 ug/plate and above.)
same,mutagenic call,"Test System: E. coli, Strain/Indicator: WP2P/WP2P uvrA, Metabolic Activation: None, Method: Plate incorporation amd preincubation (2 trials)",inactive; negative. (cytotoxicity at doses of 1000 ug/plate and above.)
same,mutagenic call,"Test System: E. coli, Strain/Indicator: WP2P/WP2P uvrA, Metabolic Activation: Rat, Liver, S-9, Aroclor, Method: Plate incorporation",inactive; negative. (cytotoxicity at doses of 1000 ug/plate and above.)
same,mutagenic call,"Test System: Mouse lymphoma cells, Strain/Indicator: L5178Y (tk+/tk-), Metabolic Activation: None, Method: Not given by California Department of Pesticides Regulation",active; positive
same,mutagenic call,"Test System: Mouse lymphoma cells, Strain/Indicator: L5178Y (tk+/tk-), Metabolic Activation: Rat, Liver, S-9, Method: Not given by California Department of Pesticides Regulation",active; positive
same,mutagenic call,"Test System: UDS primary rat hepatocytes, Strain/Indicator: Thymidine incorporation, Method: Liquid scintillation counting",inactive; negative
CCCCCC(=O)O,mutagenic call,[1],inactive; negative
same,mutagenic call,"Test System: AMES SALMONELLA TYPHIMURIUM, Strain/Indicator: TA97, Metabolic Activation: RAT, LIVER, S-9, AROCLOR 1254, Method: PREINCUBATION",inactive; negative
same,mutagenic call,"Test System: AMES SALMONELLA TYPHIMURIUM, Strain/Indicator: TA102, Metabolic Activation: NONE, Method: PREINCUBATION",inactive; negative
same,mutagenic call,"Test System: AMES SALMONELLA TYPHIMURIUM, Strain/Indicator: TA102, Metabolic Activation: RAT, LIVER, S-9, AROCLOR 1254, Method: PREINCUBATION",inactive; negative
O=C(Nc1ccccc1F)c1csc([N+](=O)[O-])c1,mutagenic call,"Test System: AMES SALMONELLA TYPHIMURIUM, Strain/Indicator: TA98, Metabolic Activation: NONE, Method: STANDARD PLATE",active; positive
same,mutagenic call,"Test System: AMES SALMONELLA TYPHIMURIUM, Strain/Indicator: TA100, Metabolic Activation: NONE, Method: STANDARD PLATE",active; positive
O=C(O)c1ccc(/C=C/c2ccc([N+](=O)[O-])o2)cc1,mutagenic call,[4],active; positive
same,mutagenic call,"Test System: AMES SALMONELLA TYPHIMURIUM, Strain/Indicator: TA98, Metabolic Activation: RAT, LIVER, S-9, PCB, Method: PREINCUBATION",active; positive
same,mutagenic call,[9],active; positive
same,mutagenic call,"Test System: AMES SALMONELLA TYPHIMURIUM, Strain/Indicator: TA100, Metabolic Activation: RAT, LIVER, S-9, PCB, Method: PREINCUBATION",active; positive
Cn1cnc([N+](=O)[O-])c1Sc1ncnc2nc[nH]c12,mutagenic call,[3],inactive; negative
same,mutagenic call,[4],inactive; negative
same,mutagenic call,[6],inactive; negative
same,mutagenic call,[8],active; positive
same,mutagenic call,[9],active; positive
same,mutagenic call,[11],active; positive
C[CH2][Hg][S]c1ccccc1C(=O)O,mutagenic call,"End Point: IN VITRO MICRONUCLEUS, Test System: HAMSTER V79 CELLS, Metabolic Activation: NONE",active; positive
same,mutagenic call,[2],inactive; negative
same,mutagenic call,[4],inactive; negative
same,mutagenic call,[5],inactive; negative
same,mutagenic call,[7],inactive; negative
same,mutagenic call,[9],inactive; negative
same,mutagenic call,[10],inactive; negative
same,mutagenic call,"Test System: AMES SALMONELLA TYPHIMURIUM, Strain/Indicator: TA1535, Metabolic Activation: HAMSTER, LIVER, S-9, AROCLOR 1254 (10%), Method: PREINCUBATION",inactive; negative
same,mutagenic call,[12],inactive; negative
same,mutagenic call,"Test System: AMES SALMONELLA TYPHIMURIUM, Strain/Indicator: TA1535, Metabolic Activation: RAT, LIVER, S-9, AROCLOR 1254 (10%), Method: PREINCUBATION",inactive; negative
same,mutagenic call,"Test System: AMES SALMONELLA TYPHIMURIUM, Strain/Indicator: TA1537, Metabolic Activation: HAMSTER, LIVER, S-9, AROCLOR 1254 (10%), Method: PREINCUBATION",inactive; negative
same,mutagenic call,[13],inactive; negative
same,mutagenic call,"Test System: AMES SALMONELLA TYPHIMURIUM, Strain/Indicator: TA1537, Metabolic Activation: RAT, LIVER, S-9, AROCLOR 1254 (10%), Method: PREINCUBATION",inactive; negative

# Source: PubChem BioAssay AID1259407 (Chemical Carcinogenesis Research Information System (CCRIS), 2018)
